According to article PMC6889545, “ALW peptide ameliorates lupus nephritis in MRL/lpr mice” (Arthritis Research & Therapy, 2019):
Where two headings read alike, the source gives them in different places. Blank lines part the entries; values can stand above or below the molecule they belong to. Non-standard residues stand in square brackets, D forms with d. Residues, ends and D or L forms follow the SMILES beside them.

How the values were obtained:
[1] = Plasma pharmacokinetics of the peptides after a single dose; format: in vivo; conditions: 8-week-old male CD1 mice, single intravenous dose 12.5 mg/kg, plasma 0-24 h, LC-MS/MS, WinNonlin 6.1; for MRT: male, CD1, mouse, plasma, iv, 12.5 mg/kg; for clearance: read-out: Cl (plasma clearance); for Vd: read-out: Vss
Experimental: (§1) Two 12-amino acid peptides (ALWPPNLHAWVP [ALW]; PLPHNPWVLAAW [PLP]) were synthetized by Sangon Biotech Company (China). The PLP peptide was a scrambled peptide with amino acid residues identical to ALW peptide. The first and last amino acids of both peptides are D-form, and the others are L-form. To study the pharmacokinetic characteristics of both peptides in vivo, 8-week-old male CD1 mice were administrated with ALW or PLP peptide at a single dose of 12.5 mg/kg. Plasma samples were collected at each time point before (0) and 0.083, 0.25, 0.5, 1, 2, 4, 8, and 24 h after administration. To assess the biodistribution of ALW peptide in vivo, tissues including the kidney, liver, and lung were collected at 0.083, 0.25, 0.5, 1, 2, and 4 h after administration. Then, the concentration of two peptides in mouse plasma and tissues were quantitatively determined by liquid chromatography-tandem mass spectrometry (LC-MS/MS). The pharmacokinetic parameters were calculated by WinNonlin 6.1 software according to the […] model.

[2] = Solubility of the peptides; format: physicochemical; conditions: for Maximum solubility: injection solution in saline
Experimental: For the in vivo study, 40 MRL/lpr mice were randomly divided into four groups. Mice in the ALW group (n = 12) received an intravenous injection of 100 μg/mL ALW peptide in saline every other day, mice in the PLP group (n = 12) were injected intravenously with 100 μg/mL PLP peptide in saline, mice in the NaCl group (n = 8) were given normal saline intravenously, and mice in the blank group (n = 8) were not treated. The dosages were decided in a preliminary experiment, showing that the concentration of anti-dsDNA IgG was about 34.74 ± 3.47 ng/mL in MRL/lpr mice aged 24 weeks. By calculating the molecular weights of anti-dsDNA IgG (150 kDa) to ALW peptide (1.4 kDa), the ALW concentration of 100 μg/mL is sufficient to maintain a high molar ratio (much higher than 5 times of anti-dsDNA IgG). In fact, the maximum solubility of PLP peptide is also 100 μg/mL, less than ALW peptide. Urine was collected every 2 weeks. Six weeks later, the mice were euthanized. Blood, urine, and kidneys were harvested for further analysis.

[3] = system: anti-dsDNA IgGs; conditions: cited from earlier work
From the text: The ALW peptide is a small molecule with a molecular weight of 1.4 kDa. […] Because there is no methionine, cysteine, and glutamine, which are related with the oxidation, cyclization, and degradation of peptides, ALW may have greater physiological stability. In addition, the ALW peptide has a relatively neutral net charge (pI = 7.38), which probably decrease unnecessary, nonspecific protein-protein interactions. […] Here, after chemical modification ...

[4] = system: BALB/c mice; assay: Induction of anti-dsDNA antibodies after intravenous peptide injection; format: in vivo, mouse; conditions: same dosages, frequencies and treatment period as MRL/lpr study, data not shown
From the text: The ALW and PLP peptides were also intravenously injected into BALB/c mice with the same dosages, frequencies, and treatment period. […] All animal protocols were approved by the Hospital Research Ethics Committee.

[5] = Tissue biodistribution of ALW peptide (kidney, liver, lung); format: in vivo, CD1 mice
Experimental: as §1

[6] = system: murine model; conditions: cited from earlier work
From the text: IgG2a and IgG3 had higher affinity for autoantigens in the kidney, followed by IgG1, IgG2b, and IgM [12]. DWEYS peptide (DWEYSVWLSN) is a DNA-mimic peptide screened by a mouse pathogenic monoclonal antibody (IgG2b, R4A clone). […] FISLE-412, a peptide compound mimicking the molecular structure of DWEYS ... || Given the key role of anti-dsDNA antibodies in the pathogenesis of LN, development of specific inhibitors of anti-dsDNA antibodies may be a good method to manage LN. Several polypeptides, specifically reacting with mouse anti-dsDNA IgG2b, were identified by the peptide display phage library. […] FISLE-412, a small peptidomimetic modified from DWEYS peptide, blocked the binding of DNA to monoclonal mouse and human anti-dsDNA antibodies with improved affinity and selectivity. In ...

[7] = system: NZB×NZW F1 lupus mice; conditions: intravenous once a month; cited from earlier work
From the text: Given the key role of anti-dsDNA antibodies in the pathogenesis of LN, development of specific inhibitors of anti-dsDNA antibodies may be a good method to manage LN. Several polypeptides, specifically reacting with mouse anti-dsDNA IgG2b, were identified by the peptide display phage library. […] FISLE-412, a small peptidomimetic modified from DWEYS peptide, blocked the binding of DNA to monoclonal mouse and human anti-dsDNA antibodies with improved affinity and selectivity. In ...

[8] = read-out: MRT0-inf (mean residence time) in plasma
[9] = 8-week-old male CD1 mice, single intravenous dose 12.5 mg/kg, kidney tissue 0.083-4 h, LC-MS/MS, WinNonlin 6.1
[10] = 8-week-old male CD1 mice, single intravenous dose 12.5 mg/kg, liver tissue 0.083-4 h, LC-MS/MS, WinNonlin 6.1
[11] = 8-week-old male CD1 mice, single intravenous dose 12.5 mg/kg, lung tissue 0.083-4 h, LC-MS/MS, WinNonlin 6.1

AUC0-inf in plasma [1]: 264 ng·h/mL | AUC0-last in plasma [1]: 258 ng·h/mL | MRT0-inf (mean residence time) in plasma [1]: 7.8 min | T1/2 (elimination half-life) in plasma [1]: 18.9 min | MRT [1, 8]: 7.8 min | MRT ([1]; read-out: MRT0-last in plasma): 6 min | C0 ([1]; mouse): 3640 ng/mL | clearance ([1]; mouse): 789 mL/min/kg | half-life ([1]; mouse, read-out: T1/2 (elimination half-life) in plasma (converted)): 19.2 min | Vd ([1]; mouse): 6.16 L/kg | Maximum solubility [2]: > 100 µg/mL | Solubility in water or PBS ([2]; water or PBS): easy to dissolve in water or PBS | Anti-dsDNA antibodies in sera after treatment (immunogenicity) [4]: induced no anti-dsDNA antibodies | Anti-dsDNA antibodies in sera after treatment (immunogenicity) ([4]; listed as ALW): no detectable anti-dsDNA antibodies | AUC0-inf in kidney [5, 9]: 28.80 ng·h/g | AUC0-last in kidney [5, 9]: 25.51 ng·h/g | Cmax in kidney [5, 9]: 60.00 ng/g | MRT0-inf in kidney [5, 9]: 27.6 min | MRT0-last in kidney [5, 9]: 19.8 min | T1/2 in kidney [5, 9]: 18.6 min | Tmax in kidney [5, 9]: 4.8 min | Kp, kidney ([5]; 8-week-old male CD1 mice, single intravenous dose 12.5 mg/kg, kidney versus plasma): 0.11 | AUC0-last in liver [5, 10]: 2.29 ng·h/g | Cmax in liver [5, 10]: 11.80 ng/g | MRT0-last in liver [5, 10]: 8.4 min | Tmax in liver [5, 10]: 4.8 min | Kp, liver ([5]; 8-week-old male CD1 mice, single intravenous dose 12.5 mg/kg, liver versus plasma): 0.01 | AUC0-last in lung [5, 11]: 5.10 ng·h/g | Cmax in lung [5, 11]: 7.33 ng/g | MRT0-last in lung [5, 11]: 29.4 min | Tmax in lung [5, 11]: 15 min | Kp, lung ([5]; 8-week-old male CD1 mice, single intravenous dose 12.5 mg/kg, lung versus plasma): 0.02 | Renal tissue exposure as share of plasma exposure ([5]; CD1 mice, intravenous 12.5 mg/kg, kidney): approximately 11.2% | Liver tissue exposure as share of plasma exposure ([5]; CD1 mice, intravenous 12.5 mg/kg, liver): 0.892% | Lung tissue exposure as share of plasma exposure ([5]; CD1 mice, intravenous 12.5 mg/kg, lung): 1.99%
Molecule: CC(C)C[C@H](NC(=O)[C@H](CC(N)=O)NC(=O)[C@@H]1CCCN1C(=O)[C@@H]1CCCN1C(=O)[C@H](Cc1c[nH]c2ccccc12)NC(=O)[C@H](CC(C)C)NC(=O)[C@@H](C)N)C(=O)N[C@@H](Cc1c[nH]cn1)C(=O)N[C@@H](C)C(=O)N[C@@H](Cc1c[nH]c2ccccc12)C(=O)N[C@H](C(=O)N1CCC[C@@H]1C(=O)O)C(C)C [ALW peptide] (H-[dA]LWPPNLHAWV[dP]-OH)
Resistance of the peptide to catalysis ([3]; after substituting two terminal residues A and P with D-form ones): enhanced | Catalysis of the peptide by anti-dsDNA IgGs ([3]; unmodified peptide): catalyzed weakly

MRT0-inf (mean residence time) in plasma [1]: 13.6 min | MRT [1, 8]: 13.8 min | MRT ([1]; read-out: MRT0-last in plasma): 11.4 min | C0 ([1]; mouse): 85400 ng/mL | AUC(0-inf) ([1]; mouse, read-out: AUC0-inf in plasma): 14100 ng·h/mL | AUC(0-t) ([1]; mouse, read-out: AUC0-last in plasma): 14100 ng·h/mL | clearance ([1]; mouse): 14.7 mL/min/kg | Vd ([1]; mouse): 0.2 L/kg | Maximum solubility [2]: 100 µg/mL | Anti-dsDNA antibodies in sera after treatment (immunogenicity) [4]: no detectable anti-dsDNA antibodies
Molecule: CC(C)C[C@H](NC(=O)[C@@H](NC(=O)[C@H](Cc1c[nH]c2ccccc12)NC(=O)[C@@H]1CCCN1C(=O)[C@H](CC(N)=O)NC(=O)[C@H](Cc1c[nH]cn1)NC(=O)[C@@H]1CCCN1C(=O)[C@H](CC(C)C)NC(=O)[C@H]1CCCN1)C(C)C)C(=O)N[C@@H](C)C(=O)N[C@@H](C)C(=O)N[C@H](Cc1c[nH]c2ccccc12)C(=O)O [PLP peptide, reference compound] (H-[dP]LPHNPWVLAA[dW]-OH)

Molecule: DWEYSVWLSN [DWEYS peptide, DNA-mimic peptide … screened by a mouse pathogenic monoclonal antibody (IgG2b, R4A clone)]
Renal deposition of IgG2b ([6]; SCID mice): protected SCID mice from the renal deposition of IgG2b | Renal IgG deposition ([6]; murine model, intraperitoneal administration): evidently depressed

Molecule: FIEWNKLRFRQGLEW [pCons, 15-mer peptide based on MHC class I and II T cell determinants in the VH region of murine anti-dsDNA IgG2a or IgG2b]
Emergence of multiple autoantibodies [7]: delayed the emergence of multiple autoantibodies
